Measurements from the OPERA property sets (Mansouri et al. 2018).

**Q.** With `Cc1cc(C)nc(-n2c(C)cc(=O)n2C)n1` as the compound, how does the logP read?
**A.** Its logP is 0.51.

**Q.** For `CN(C)C(=O)Nc1ccc(Br)cc1`, which logP is on record?
**A.** Its logP is 2.19.

**Q.** Which logP does the source give for `COc1ccccc1C(=O)NN` here?
**A.** The logP was 0.25.

**Q.** Which logP does the source give for `CN(C)S(=O)(=O)c1ccccc1` here?
**A.** The logP was 1.35.

**Q.** For `COc1cc(C)ccc1N=C1NCCN1`, which logP is on record?
**A.** The logP was 1.64.

**Q.** Which logP does the source give for `CNN=CCCc1ccccc1` here?
**A.** Its logP is 1.

**Q.** With `CC(=O)Nc1cc(C)c(O)c(C)c1C` as the compound, how does the logP read?
**A.** Its logP is 0.82.

**Q.** With `NNC(=O)c1ccc(Br)cc1` as the compound, how does the logP read?
**A.** Its logP is 1.28.

**Q.** For `CN(Cc1ccc([N+](=O)[O-])cc1)N=Nc1ccc(C(=O)O)cc1`, which logP is on record?
**A.** Its logP is 4.03.

**Q.** Which logP does the source give for `CN(C)N=Nc1ccc(NC(N)=O)cc1` here?
**A.** Its logP is 1.25.

**Q.** With `[Br-].c1ccc(C[n+]2cccc3ccccc32)cc1` as the compound, how does the logP read?
**A.** The logP was -0.82.

**Q.** For `CCNP(=O)(OC)Oc1cc(Cl)c(Cl)cc1Cl` (centres undefined), which logP is on record?
**A.** The logP was 3.18.

**Q.** With `COc1ccccc1N=NN(C)C` as the compound, how does the logP read?
**A.** The logP was 2.34.

**Q.** For `O=NN1CCC(O)CC1`, which logP is on record?
**A.** Its logP is -0.89.

**Q.** For `COc1ncnc2ccccc12`, which logP is on record?
**A.** The logP was 1.97.

**Q.** For `Cc1cc(C(=O)O)no1`, which logP is on record?
**A.** Its logP is 0.68.

**Q.** With `CON(C)C(=O)Nc1ccc(OCCc2ccccc2)cc1` as the compound, how does the logP read?
**A.** The logP was 4.5.

**Q.** For `CSC(C)=NOC(=O)N(C)SN(C)C(=O)C(C)C`, which logP is on record?
**A.** The logP was 2.2.

**Q.** Which logP does the source give for `CCN1C(=O)CN=C(c2ccccc2)c2cc(Cl)ccc21` here?
**A.** Its logP is 3.21.

**Q.** With `COc1cccc(NS(=O)(=O)C(F)(F)F)c1` as the compound, how does the logP read?
**A.** Its logP is 3.13.

**Q.** With `CC(C)NC(=O)C=Cc1ncc([N+](=O)[O-])s1` as the compound, how does the logP read?
**A.** Its logP is 1.76.

**Q.** For `Nc1ccc(OC2OC(CO)C(O)C(O)C2O)cc1` (centres undefined), which logP is on record?
**A.** The logP was -2.67.

**Q.** Which logP does the source give for `O=[N+]([O-])c1cnc(N=C2SCCN2CCO)s1` here?
**A.** Its logP is 1.28.

**Q.** With `O=C1CN=C(c2ccccc2Cl)c2cc(Br)ccc2N1` as the compound, how does the logP read?
**A.** Its logP is 3.3.

**Q.** With `CCCCCCCCCC[n+]1ccc(C)cc1C.[I-]` as the compound, how does the logP read?
**A.** Its logP is 0.54.

**Q.** Which logP does the source give for `CCCCCCCC[n+]1ccc(C)cc1C.[I-]` here?
**A.** Its logP is -0.57.

**Q.** For `COc1ccc(Cc2ccccc2C(N)=O)cc1`, which logP is on record?
**A.** The logP was 1.63.

**Q.** For `Cc1ccc(C(=N)c2ccc(C)cc2)cc1`, which logP is on record?
**A.** Its logP is 3.71.

**Q.** With `O=C(O)COc1cc(F)cc(Cl)c1` as the compound, how does the logP read?
**A.** The logP was 2.2.

**Q.** For `CN1C(C(=O)Nc2nccs2)C(=O)c2ccccc2S1(=O)=O` (centres undefined), which logP is on record?
**A.** Its logP is 1.64.

**Q.** For `CCNC1=NC(=O)C(=Cc2ccc([N+](=O)[O-])o2)S1`, which logP is on record?
**A.** The logP was 1.16.

**Q.** Which logP does the source give for `CCOC(=O)CN(C(=O)CCl)c1ccccc1CC` here?
**A.** Its logP is 2.57.

**Q.** For `C=CC(CC)OC(N)=O` (centres undefined), which logP is on record?
**A.** Its logP is 1.09.

**Q.** With `CCC(C)C1=Nc2ccc(Cl)cc2S(=O)(=O)N1` (centres undefined) as the compound, how does the logP read?
**A.** Its logP is 2.47.

**Q.** For `CC(=O)C(C#N)=NNc1cc(C(F)(F)F)ccc1Cl`, which logP is on record?
**A.** Its logP is 5.08.

**Q.** With `O=NN(CCCl)C(=O)NC1CCCCC1O` (centres undefined) as the compound, how does the logP read?
**A.** Its logP is 1.75.

**Q.** Which logP does the source give for `COc1cc(OC)cc(OC(=O)CNC(=O)c2ccccc2)c1` here?
**A.** Its logP is 2.69.

**Q.** Which logP does the source give for `CCSC(=O)Oc1cccc2cccnc12` here?
**A.** Its logP is 2.74.

**Q.** With `O=[N+]([O-])C=Cc1cc([N+](=O)[O-])ccc1Cl` as the compound, how does the logP read?
**A.** Its logP is 2.23.

**Q.** For `COc1cc(-n2nc(C)cc2OC)nc(OC)n1`, which logP is on record?
**A.** The logP was 1.86.

**Q.** For `FC(F)(F)c1nc2ncccc2[nH]1`, which logP is on record?
**A.** Its logP is 1.38.

**Q.** Which logP does the source give for `COC12C(COC(N)=O)C3=C(C(=O)C(C)=C(Nc4ncc(C)s4)C3=O)N1CC1NC12` (centres undefined) here?
**A.** Its logP is 1.16.

**Q.** With `COCN1C(=O)CN=C(c2ccccc2)c2cc([N+](=O)[O-])ccc21` as the compound, how does the logP read?
**A.** The logP was 2.05.

**Q.** With `CCOc1cc(Cc2cnc(N)nc2N)cc(OCC)c1C(C)(C)O` as the compound, how does the logP read?
**A.** The logP was 2.46.

**Q.** With `COc1ccc2c(c1)C(c1ccccc1)=NCC(=O)N2` as the compound, how does the logP read?
**A.** The logP was 2.24.

**Q.** For `COc1ccc(Cc2cnc(N)nc2N)cc1OC`, which logP is on record?
**A.** Its logP is 0.97.

**Q.** With `CNC(=O)ON=C(C)C(C)(C)[N+](=O)[O-]` as the compound, how does the logP read?
**A.** Its logP is 0.66.

**Q.** Which logP does the source give for `CCOc1cc(Cc2cnc(N)nc2N)cc(OCC)c1C(C)=O` here?
**A.** The logP was 2.04.

**Q.** For `Cc1nnc(C=NO)s1`, which logP is on record?
**A.** The logP was 0.78.

**Q.** With `N#Cc1c(N)sc2ccccc12` as the compound, how does the logP read?
**A.** Its logP is 2.17.

**Q.** With `CNC(=O)C(CC(C)C)NC(C)=O` (centres undefined) as the compound, how does the logP read?
**A.** Its logP is 0.14.

**Q.** Which logP does the source give for `CCCCN(SN(C)C(=O)Oc1cccc2c1OC(C)(C)C2)C(=O)OC` here?
**A.** Its logP is 4.6.

**Q.** For `COc1cc(Cc2cnc(N)nc2N)cc(OC)c1C(C)(C)O`, which logP is on record?
**A.** Its logP is 1.49.

**Q.** For `O=C1CN=C(c2ccccc2F)c2cc(Cl)ccc2N1CC(O)CO` (centres undefined), which logP is on record?
**A.** Its logP is 1.51.

**Q.** For `Cc1ccccc1N1C(=O)CCC1=O`, which logP is on record?
**A.** The logP was 0.29.

**Q.** With `COC(=O)COc1c(OC)cc(Cc2cnc(N)nc2N)cc1OC` as the compound, how does the logP read?
**A.** The logP was 0.55.

**Q.** With `CC1=Nc2ccc(C)cc2S(=O)(=O)N1` as the compound, how does the logP read?
**A.** The logP was 0.81.

**Q.** With `CC1CCCN(N=O)C1` (centres undefined) as the compound, how does the logP read?
**A.** The logP was 0.99.

**Q.** With `COc1c(N(C)C)cc(Cc2cnc(N)nc2N)cc1N(C)C` as the compound, how does the logP read?
**A.** The logP was 2.05.
